Laboratory results: patent US20190322676A1, “CERAMIDE GALACTOSYLTRANSFERASE INHIBITORS FOR THE TREATMENT OF DISEASE” (BioMarin Pharmaceutical Inc., priority 2016, published 2019)
Counter-ions that a name gives are not always drawn.

Target: T1, human CGT (ceramide galactosyltransferase), CHO/CGT lysate (Homo sapiens, UniProt Q16880)
T1 construct: Full-length human CGT cDNA was cloned into the BamH1/Xho1 site of pcDNA3.1 (+); expressed in transfected cells; host or cells: Chinese hamster ovary (CHO) cells; lysate prepared with M-PER
T1 sequence (Q16880 21-541): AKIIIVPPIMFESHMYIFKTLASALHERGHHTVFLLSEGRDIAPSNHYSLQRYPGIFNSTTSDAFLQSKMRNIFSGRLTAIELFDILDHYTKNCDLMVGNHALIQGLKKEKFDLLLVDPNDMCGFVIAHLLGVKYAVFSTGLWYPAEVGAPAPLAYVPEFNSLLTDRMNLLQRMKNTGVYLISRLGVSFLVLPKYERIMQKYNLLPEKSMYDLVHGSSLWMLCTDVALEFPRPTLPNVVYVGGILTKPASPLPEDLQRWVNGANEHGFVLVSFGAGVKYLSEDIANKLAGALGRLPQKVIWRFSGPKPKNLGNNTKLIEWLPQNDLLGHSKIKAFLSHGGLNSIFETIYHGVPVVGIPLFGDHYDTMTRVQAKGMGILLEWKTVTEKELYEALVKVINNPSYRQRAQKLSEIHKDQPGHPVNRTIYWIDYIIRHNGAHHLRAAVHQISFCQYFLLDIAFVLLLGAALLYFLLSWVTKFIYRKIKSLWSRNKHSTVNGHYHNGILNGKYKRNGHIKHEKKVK
Assay: CGT enzyme assay, RapidFire/MS/MS readout (Table 1 ranges with one asterisk *)
Type: biochemical
Details: RapidFire method (range with one asterisk *)
Procedure, shortened: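 Lysate (4 μg) of CHO cells transfected with full-length human CGT incubated 1 h at 37 °C with compound (0.001–50 μM) in pH 7.2 HEPES buffer with 10 μM C6-NBD-dihydro-ceramide, 17.5 μM UDP-galactose, Mg2+/Mn2+, CHAPS, BSA, 0.5% DMSO; ** set also contained 0.01% Tween 80. Product quantified by RapidFire/MS/MS, normalized to internal standard; IC50 from sigmoidal variable-slope fits.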

SMILES | IC50
NC1CC2CCC(C1)N2C(=O)[C@@H](NS(=O)(=O)c1ccc(OCC2CCCC2)cc1)C(F)(F)c1ccc(C(F)(F)F)cc1 (stereo partly drawn) [Compound 60-1, N-((2R)-3-(3-amino-8-azabicyclo[3.2.1]octan-8-yl)-1,1-difluoro-3-oxo-1-(4-(trifluoromethyl)phenyl)propan-2-yl)-4-(cyclopentylmethoxy) benzenesulfonamide] | 1 to 10 µM
NC1CC2CCC(C1)N2C(=O)[C@H](NS(=O)(=O)c1ccc(OCC2CCCC2)cc1)C(F)(F)c1ccc(C(F)(F)F)cc1 (stereo partly drawn) [Compound 60-2, N-((2S)-3-(3-amino-8-azabicyclo[3.2.1]octan-8-yl)-1,1-difluoro-3-oxo-1-(4-(trifluoromethyl)phenyl)propan-2-yl)-4-(cyclopentylmethoxy)benzenesulfonamide] | 10 to 30 µM
NC1CCN(C(=O)[C@@H](NS(=O)(=O)c2ccc3cc(OC4CCCC4)ccc3c2)C(F)(F)c2ccc(Oc3ccccc3)cc2)CC1 [Compound 61-1, (R)—N-(3-(4-aminopiperidin-1-yl)-1,1-difluoro-3-oxo-1-(4-phenoxyphenyl)propan-2-yl)-6-(cyclopentyloxy)naphthalene-2-sulfonamide] | < 1 µM
NC1CCN(C(=O)[C@H](NS(=O)(=O)c2ccc3cc(OC4CCCC4)ccc3c2)C(F)(F)c2ccc(Oc3ccccc3)cc2)CC1 [Compound 61-2, (S)—N-(3-(4-aminopiperidin-1-yl)-1,1-difluoro-3-oxo-1-(4-phenoxyphenyl)propan-2-yl)-6-(cyclopentyloxy)naphthalene-2-sulfonamide] | < 1 µM
CN([C@H](C(=O)N1CCC(N)CC1)C(F)(F)c1ccc(Oc2ccccc2)cc1)S(=O)(=O)c1ccc2cc(OC3CCCC3)ccc2c1 [Compound 62-1, (R)—N-(3-(4-aminopiperidin-1-yl)-1,1-difluoro-3-oxo-1-(4-phenoxyphenyl)propan-2-yl)-6-(cyclopentyloxy)-N-methylnaphthalene-2-sulfonamide trifluoroacetate] | 1 to 10 µM
CN([C@@H](C(=O)N1CCC(N)CC1)C(F)(F)c1ccc(Oc2ccccc2)cc1)S(=O)(=O)c1ccc2cc(OC3CCCC3)ccc2c1 [Compound 62-2, (S)—N-(3-(4-aminopiperidin-1-yl)-1,1-difluoro-3-oxo-1-(4-phenoxyphenyl)propan-2-yl)-6-(cyclopentyloxy)-N-methylnaphthalene-2-sulfonamide trifluoroacetate] | 1 to 10 µM
NC1CCN(C(=O)[C@@H](NS(=O)(=O)c2ccc(OCC3CCCCC3)cc2)C(F)(F)c2ccc(Oc3ccccc3)cc2)CC1 [Compound 63-1, (R)—N-(3-(4-aminopiperidin-1-yl)-1,1-difluoro-3-oxo-1-(4-phenoxyphenyl)propan-2-yl)-4-(cyclohexylmethoxy)benzenesulfonamide trifluoroacetate] | 1 to 10 µM
NC1CCN(C(=O)[C@H](NS(=O)(=O)c2ccc(OCC3CCCCC3)cc2)C(F)(F)c2ccc(Oc3ccccc3)cc2)CC1 [Compound 63-2, (S)—N-(3-(4-aminopiperidin-1-yl)-1,1-difluoro-3-oxo-1-(4-phenoxyphenyl)propan-2-yl)-4-(cyclohexylmethoxy)benzenesulfonamide trifluoroacetate] | 10 to 30 µM
CN([C@H](C(=O)N1CCC(N)CC1)C(F)(F)c1ccc(Oc2ccccc2)cc1)S(=O)(=O)c1ccc(OCC2CCCCC2)cc1 [Compound 64-1, (R)—N-(3-(4-aminopiperidin-1-yl)-1,1-difluoro-3-oxo-1-(4-phenoxyphenyl)propan-2-yl)-4-(cyclohexylmethoxy)-N-methylbenzenesulfonamide] | 1 to 10 µM
CN([C@@H](C(=O)N1CCC(N)CC1)C(F)(F)c1ccc(Oc2ccccc2)cc1)S(=O)(=O)c1ccc(OCC2CCCCC2)cc1 [Compound 64-2, (S)—N-(3-(4-aminopiperidin-1-yl)-1,1-difluoro-3-oxo-1-(4-phenoxyphenyl)propan-2-yl)-4-(cyclohexylmethoxy)-N-methylbenzenesulfonamide] | 10 to 30 µM
NC1CC2CCC(C1)N2C(=O)[C@@H](NS(=O)(=O)c1ccc2cc(OC3CCCC3)ccc2c1)C(F)(F)c1cccc(Br)c1 (stereo partly drawn) [Compound 65-1, N-((2R)-3-(3-amino-8-azabicyclo[3.2.1]octan-8-yl)-1-(3-bromophenyl)-1,1-difluoro-3-oxopropan-2-yl)-6-(cyclopentyloxy)naphthalene-2-sulfonamide] | 1 to 10 µM
NC1CC2CCC(C1)N2C(=O)[C@H](NS(=O)(=O)c1ccc2cc(OC3CCCC3)ccc2c1)C(F)(F)c1cccc(Br)c1 (stereo partly drawn) [Compound 65-2, N-((2S)-3-(3-amino-8-azabicyclo[3.2.1]octan-8-yl)-1-(3-bromophenyl)-1,1-difluoro-3-oxopropan-2-yl)-6-(cyclopentyloxy)naphthalene-2-sulfonamide] | 10 to 30 µM
NC1CC2CCC(C1)N2C(=O)[C@@H](NS(=O)(=O)c1ccc2cc(OC3CCCC3)ccc2c1)C(F)(F)c1cccc(-c2ccccc2)c1 (stereo partly drawn) [Compound 66-1, N-((2R)-1-([1,1′-biphenyl]-3-yl)-3-(3-amino-8-azabicyclo[3.2.1]octan-8-yl)-1,1-difluoro-3-oxopropan-2-yl)-6-(cyclopentyloxy)naphthalene-2-sulfonamide] | < 1 µM
NC1CC2CCC(C1)N2C(=O)[C@H](NS(=O)(=O)c1ccc2cc(OC3CCCC3)ccc2c1)C(F)(F)c1cccc(-c2ccccc2)c1 (stereo partly drawn) [Compound 66-2, N-((2S)-1-([1,1′-biphenyl]-3-yl)-3-(3-amino-8-azabicyclo[3.2.1]octan-8-yl)-1,1-difluoro-3-oxopropan-2-yl)-6-(cyclopentyloxy)naphthalene-2-sulfonamide] | 1 to 10 µM
CN([C@H](C(=O)N1C2CCC1CC(N)C2)C(F)(F)c1cccc(Br)c1)S(=O)(=O)c1ccc2cc(OC3CCCC3)ccc2c1 (stereo partly drawn) [Compound 67-1, N-((2R)-3-(3-amino-8-azabicyclo[3.2.1]octan-8-yl)-1-(3-bromophenyl)-1,1-difluoro-3-oxopropan-2-yl)-6-(cyclopentyloxy)-N-methylnaphthalene-2-sulfonamide] | 1 to 10 µM
CN([C@@H](C(=O)N1C2CCC1CC(N)C2)C(F)(F)c1cccc(Br)c1)S(=O)(=O)c1ccc2cc(OC3CCCC3)ccc2c1 (stereo partly drawn) [Compound 67-2, N-((2S)-3-(3-amino-8-azabicyclo[3.2.1]octan-8-yl)-1-(3-bromophenyl)-1,1-difluoro-3-oxopropan-2-yl)-6-(cyclopentyloxy)-N-methylnaphthalene-2-sulfonamide] | 30 to 100 µM
CCN([C@H](C(=O)N1C2CCC1CC(N)C2)C(F)(F)c1ccc(Br)cc1)S(=O)(=O)c1ccc2cc(OC3CCCC3)ccc2c1 (stereo partly drawn) [Compound 68-1, N-((2R)-3-(3-amino-8-azabicyclo[3.2.1]octan-8-yl)-1-(4-bromophenyl)-1,1-difluoro-3-oxopropan-2-yl)-6-(cyclopentyloxy)-N-ethylnaphthalene-2-sulfonamide] | 1 to 10 µM
CCN([C@@H](C(=O)N1C2CCC1CC(N)C2)C(F)(F)c1ccc(Br)cc1)S(=O)(=O)c1ccc2cc(OC3CCCC3)ccc2c1 (stereo partly drawn) [Compound 68-2, N-((2S)-3-(3-amino-8-azabicyclo[3.2.1]octan-8-yl)-1-(4-bromophenyl)-1,1-difluoro-3-oxopropan-2-yl)-6-(cyclopentyloxy)-N-ethylnaphthalene-2-sulfonamide] | 30 to 100 µM
NC1CCN(C(=O)[C@@H](NS(=O)(=O)c2ccc3cc(OC4CCCC4)ccc3c2)C(F)(F)c2cccc(-c3ccccc3)c2)CC1 [Compound 69-1, (R)—N-(1-([1,1′-biphenyl]-3-yl)-3-(4-aminopiperidin-1-yl)-1,1-difluoro-3-oxopropan-2-yl)-6-(cyclopentyloxy)naphthalene-2-sulfonamide trifluoroacetate] | 1 to 10 µM
NC1CCN(C(=O)[C@H](NS(=O)(=O)c2ccc3cc(OC4CCCC4)ccc3c2)C(F)(F)c2cccc(-c3ccccc3)c2)CC1 [Compound 69-2, (S)—N-(1-([1,1′-biphenyl]-3-yl)-3-(4-aminopiperidin-1-yl)-1,1-difluoro-3-oxopropan-2-yl)-6-(cyclopentyloxy)naphthalene-2-sulfonamide trifluoroacetate] | 30 to 100 µM
NC1CC2CCC(C1)N2C(=O)[C@@H](NS(=O)(=O)c1ccc(OCC2CCCCC2)cc1)C(F)(F)c1cccc(-c2ccccc2)c1 (stereo partly drawn) [Compound 70-1, N-((2R)-1-([1,1′-biphenyl]-3-yl)-3-(3-amino-8-azabicyclo[3.2.1]octan-8-yl)-1,1-difluoro-3-oxopropan-2-yl)-4-(cyclohexylmethoxy)benzenesulfonamide trifluoroacetate] | 1 to 10 µM
NC1CC2CCC(C1)N2C(=O)[C@H](NS(=O)(=O)c1ccc(OCC2CCCCC2)cc1)C(F)(F)c1cccc(-c2ccccc2)c1 (stereo partly drawn) [Compound 70-2, N-((2S)-1-([1,1′-biphenyl]-3-yl)-3-(3-amino-8-azabicyclo[3.2.1]octan-8-yl)-1,1-difluoro-3-oxopropan-2-yl)-4-(cyclohexylmethoxy) benzenesulfonamide trifluoroacetate] | 1 to 10 µM
